Test system: DMS114 SCLC xenograft
Text: • (i) Compound Formulation: Compound 1 was formulated as a wet-milled nanosuspension (24 hr milling in 2.5% w/v polyvinyl pyrrolidone (PVP), 0.5% w/v Macrogol 15 Hydroxystearate (Kolliphor HS15) aqueous, with <1 μm particle-size distribution (PSD; ˜650 nm median diameter (d50)) for oral gavage administration. • (ii) Cell Implant, Compound Dosing and Tissue Collection: Immune deficient female mice with a severe combined immunodeficiency (SCID) mutation in a non-obese diabetic background (NOD SCID; 6 to 8 week old; NOD.CB17-Prkdcscid/NCrCrl from Charles River Laboratories) received a subcutaneous (SC) implant of 7.5×10^6 DMS114 cells (in 1:1 matrigel (Trevigen, Cultrex BME Path Clear®, Lot #: 30625F14), total volume 200 μl) into the right flank. Tumor volume and body weight were measured twice a week. On Day 20 post implant, 64 mice were randomized, based on tumor size at a geometric mean (geomean) of about 160 mm^3, into 6 groups corresponding to dose (Table 1). Compounds were administered at 10 ml/kg by oral gavage (Compound 1; BID ( 7/17 hours apart)) or intraperitoneal injection (cisplatin), respectively. The cisplatin dosing schedule was once a week for 3 weeks (Q7Dx3) and started 7 days after the randomization and treatment initiation with Compound 1.
On Day 55, study groups 1, 2, 3 and 4 were terminated (Table 1). Tumor (snap frozen) samples were collected at 4 hours post last dose for pharmacodynamic (PD) analysis. […] Tumor samples from groups 5 and 6 were collected 3 hours post last dose depending on available tumor sizes. All procedures performed on these animals were in accordance with regulations and established guidelines and were reviewed and approved by Pfizer's Institutional Animal Care and Use Committee. • (iii) Data Interpretation: For each experiment, calculations were performed and graphs created in Microsoft Excel and GraphPad Prism version 7.02 respectively. The tumor volume was calculated as 0.5×length×width^2. Tumor growth inhibition (TGI) was determined by the formula: % TGI=[1−(Vtx−Vt0/Vcx−Vc0)]×100, where Vc, Vt are the geometric means of control and treated groups. X=day X on study and 0=initial day of dosing. ELISA Assay: • (i) Histone Extraction: Histone extraction was performed using the EpiQuick Histone Extraction Kit (Epigentek OP0006). Frozen tumor samples were cut and homogenized using cold mortar and pestle on dry-ice. The homogenized mixture was transferred to a 1.5 mL tube in 1× Pre-Lysis Buffer (200 mg/mL) containing phenylmethylsulfonyl fluoride (PMSF). Samples were gently mixed, incubated on ice for 15 minutes, and spun down at 3,000 rpm for 5 minutes at 4° C. The tissue pellet was resuspended in 3 volumes (approximately 200 μL per 100 mg of tissue) of lysis buffer from the Histone Extraction Kit, incubated on ice for 30 minutes, and spun down at 12,000 rpm for 5 minutes at 4° C. Balance-DTT buffer was prepared by adding DTT Solution to balance buffer at a 1:500 ratio. The supernatant (containing acid soluble proteins) was transferred to a new 1.5 mL tube and 0.3 volumes of Balance-dithiothreitol (DTT) buffer from the Histone Extraction Kit were immediately added to each sample. The tumor lysate was briefly sonicated for 4 cycles (30 seconds on and 30 seconds off) at high intensity using the Bioruptor Plus (Diagenode #601020001). Extracts were aliquoted and stored at −20° C. (short term) or −80° C. (long term). Protein concentration was quantified using the Coomassie Plus (Bradford) Assay Kit (Thermo #23236). • (ii) H3K27Me3 and Me2 ELISA Assay: Histone extracts were diluted to a final concentration of 400 ng (or 800 ng) in 100 μL of coating buffer (phosphate buffered saline (PBS) containing 0.05% bovine serum albumin (BSA)).

SMILES: N.N.[Cl][Pt][Cl] [cisplatin, reference compound]
- TGI by Day 55 (Compound 1 100 mg/kg BID PO, cisplatin 4 mg/kg IP Q7Dx3, alone or combined): 51%
- tumors regressed or progressed compared to the starting tumor burden (Day 55, Compound 1 100 mg/kg BID, cisplatin 4 mg/kg Q7Dx3): all tumors had progressed
- tumor regression sustained after cisplatin discontinuation (post Day 55, Compound 1 maintenance dosing in combination arm, no further treatment in cisplatin arm): progressed
- survival benefit, Log-rank test (Mantel-Cox) (survival cut-off at 500 mm^3 tumor burden): did not reach the P<0.05 significance level
- median survival (survival cut-off at 500 mm^3 tumor burden, Compound 1 100 mg/kg BID, cisplatin 4 mg/kg Q7Dx3): 37.5 days
